Test results from US20060122152A1, “Heparin for the treatment of ocular pathologies” (priority 2004, published 2006).

What was measured:
[1] = tested on: corneal neovascularization; test: Silver nitrate cauterization, single agents, percent area of neovascularization and scar (Example 4); type: in vivo, Long Evans pigmented rats; conditions: for NV area compared to the control group, statistical significance (in words): GLM with Tukey's studentized range test, p≦0.05; for Percent Area Of Neovascularization Mean +/− SD: day 7, topical two times daily for 7 days, LMWH 10 mg/ml, ascomycin 50 μg/ml, flurbiprofen 0.03%, doxycycline 20 mg/ml, triamcinolone acetonide 4 mg/ml, normal saline 74.9 +/− 9.2; for mean of percent area (neovascularization): day 7, same treatments, control group 74.9%±9.2%, FIG. 6; for neovascularization on slit lamp photograph (in words): seven days after induction of corneal burn, FIGS. 8A-8C
[2] = tested on: corneal neovascularization; test: Silver nitrate cauterization, two drug combinations, percentage area of corneal neovascularization (Example 3); type: in vivo, Long Evans rats; conditions: for effect on corneal neovascularization as individual agents (in words): flurbiprofen 0.03% w/v, LMWH 10 mg/ml, data not shown
Description: Artificial corneal burns were induced in thirty-two eyes belonging to thirty-two Long Evans rats to determine the effects of doxycycline or another tetracycline derivative and low molecular weight heparin, doxycycline or another tetracycline derivative, and flurbiprofen, or flurbiprofen and low molecular weight heparin, on corneal neovascularization. All the eyes were examined to exclude any eyes with corneal scars and/or neovascularization prior to induction.
Neovascularization was induced in all eyes using silver nitrate cauterization. The animals were first anesthetized by intraperitoneal injection of a mixture of ketamine hydrochloride (25 mg/kg) with xylazine hydrochloride (5 mg/kg). The cornea was then anesthetized by a drop of 0.5% proparacaine and allowed to dry.
Group 1 (number of animals, n=8) received a 1:1 combination of 0.03% flurbiprofen sodium ophthalmic solution (Allergan, Irvine Calif.) and 10 mg/ml low molecular weight heparin (Enoxaparin, Aventis Pharmaceuticals Inc., Bridgewater N.J.); an actual concentration of 0.015% flurbiprofen with 5 mg/ml low molecular weight heparin. […] Group 3 (n=8) received a 1:1 combination of 20 mg/ml doxycycline and 10 mg/ml low molecular weight heparin; an actual concentration of 10 mg/ml doxycycline with 5 mg/ml low molecular weight heparin. Group 4 (n=8) received balanced salt solution (control). The drops were applied topically immediately after cauterization; treatments were administered two times per day for seven days.
The presence of new vessels (neovascularization) and the extent of new vessel formation was assessed by slit lamp photography and histology. Inhibition of vessel proliferation was evaluated by measuring vessel progression from the outer cornea (corneal limbus) into the cornea. As previously described, it will be appreciated that any reduction of new vessel proliferation and/or regression of existing vessels is therapeutic, and that complete inhibition and/or regression is not required, and also that reduction includes regression of existing vessels.
The extent of corneal neovascularization was determined by slit lamp microscopy with photography (SL-7E, Topcon, Tokyo Japan) on day seven after cauterization. The animals were euthanized in a carbon dioxide chamber under deep general anesthesia. […]
Corneal neovascularization was assessed by scanning (Cano scan 9900F, Canon, Tokyo Japan) the slit lamp photographs into high resolution digital images. […] The percentage area of the cornea covered by the corneal scar in each eye was also determined. […]
Statistical analysis was performed using Statistical Analysis System (SPSS 11.5) software. The difference between the groups was determined using Mann-Whitney U Analysis test; a p value less than 0.05 was considered significant.

[3] = tested on: corneal neovascularization; test: Silver nitrate corneal burn in rat eyes: graded inhibition of neovascularization (Example 1); type: in vivo; conditions: single agents topically applied twice a day; doxycycline about 1 to about 20 mg/ml, LMWH about 10 mg/ml, triamcinolone about 4 mg/ml; compared to controls
Procedure: Artificial corneal burns were induced in rat eyes to determine the effects of doxycycline, steroids, and low molecular weight heparin, alone and in combinations, on corneal neovascularization.
The presence of new vessels (neovascularization) and the extent of new vessel formation was assessed by split lamp photography and histology. Inhibition of vessel proliferation was evaluated by measuring vessel progression from the outer cornea (corneal limbus) into the cornea. A numerical rating system was used to quantitate the degree of inhibition (+, ++, and +++ inhibition), with “+ inhibition” indicating inhibition one-third of the distance from the limbus of the cornea to the center; “++ inhibition” indicating inhibition two-thirds of the distance from the limbus to the center; “+++ inhibition” indicating complete inhibition of vessels between the limbus and the center; and the designation “± inhibition” indicating an intermediate degree of inhibition (e.g, less than +, ++, or +++).

Compound | NV area compared to the control group, statistical significance (in words) [1] | Percent Area Of Neovascularization Mean +/− SD [1] | mean of percent area (neovascularization) [1] | neovascularization on slit lamp photograph (in words) [1] | effect on corneal neovascularization as individual agents (in words) [2] | inhibition of neovascularization [3] | effect on corneal neovascularization as individual agent (in words) ([2]; doxycycline at 10 mg/ml) | effect on corneal neovascularization as individual agent (in words) ([2]; doxycycline at 20 mg/ml, p<0.05%) | histopathology of corneal stroma (in words) ([1]; H&E 100X, FIG. 9B)
CC(C(=O)[O-])c1ccc(-c2ccccc2)c(F)c1.O.O.[Na+] (racemic) [flurbiprofen, sodium (±)-2-(2-fluoro-4-biphenylyl)-propionate dihydrate] | no statistically significant differences | 50.6 +/− 18.7% | 50.5%±18.7% | neovascularization is quite prominent | did not significantly decrease | – | – | – | –
CC[C@@H]1/C=C(\C)C[C@H](C)C[C@H](OC)[C@H]2O[C@@](O)(C(=O)C(=O)N3CCCC[C@H]3C(=O)O[C@H](/C(C)=C/[C@@H]3CC[C@@H](O)[C@H](OC)C3)[C@H](C)[C@@H](O)CC1=O)[C@H](C)C[C@@H]2OC [ascomycin] | no statistically significant differences | – | 56.0%±22.4% | – | – | – | – | – | –
CC1c2cccc(O)c2C(=O)C2=C(O)C3(O)C(=O)C(C(N)=O)=C(O)C(N(C)C)C3C(O)C21.O (stereo not shown) [doxycycline, 4-(dimethylamino)-1,4,4a,5,5a,6,11,12a-octahydro3,5,10,12,12a-pentahydroxy-6-methyl-1,11-dioxo-2-naphthacenecarboxamide monohydrate] | significant reduction | 35.5 +/− 29.1% | 35.5%±29.1% | neovascularization is less prominent than in control group | – | + | not | did significantly inhibit | –
CC1(C)O[C@@H]2C[C@H]3[C@@H]4CCC5=CC(=O)C=C[C@]5(C)[C@@]4(F)[C@@H](O)C[C@]3(C)[C@]2(C(=O)CO)O1 [triamcinolone, 9α-fluoro-11 13,16a,17,21 tetra hydroxy-pregna-1,4diene-3,20-dione cyclic 16,17-acetal with acetone] | significant reduction | 13.3 +/− 7.2% | 13.3%±7.1% | relatively small neovascular area | – | ++ | – | – | avascular stroma
low molecular weight heparin | no statistically significant differences | 66.7 +/− 9.9% | 66.7%±9.9% | – | did not significantly decrease | + | – | – | –
